Source: patent US20040048838A1, “Meiosis regulating compounds” (priority 1995, published 2004)

SMILES	melting point [°C]
C[C@@H](CCl)CCC[C@@H](C)[C@H]1CC=C2C3=C(CC[C@@]21C)[C@@]1(C)CC[C@H](O)C(C)(C)[C@@H]1CC3	145 to 145.5
CC(C)CCC[C@@H](C)[C@H]1[C@@H](O)C[C@H]2C3=CC=C4C(C)(C)[C@@H](O)CC[C@]4(C)[C@H]3CC[C@]12C	171 to 173
C[C@@H](CI)CCC[C@@H](C)[C@H]1CC=C2C3=C(CC[C@@]21C)[C@@]1(C)CC[C@H](O)C(C)(C)[C@@H]1CC3	148
C[C@@H](CO)CCC[C@@H](C)[C@H]1CC=C2C3=C(CC[C@@]21C)[C@@]1(C)CC[C@H](O)C(C)(C)[C@@H]1CC3	180 to 181
C[C@H](CCC(=O)N(C)C)[C@H]1CC=C2C3=C(CC[C@@]21C)[C@@]1(C)CC[C@H](O)C(C)(C)[C@@H]1CC3	192 to 195
CC(C)CCC[C@@H](C)[C@H]1CC=C2C3=C(CC[C@@]21C)[C@@]1(C)CC=CCC1CC3 (stereo partly drawn)	104.7
